The target of assay [1] is 5HT2B (Homo sapiens, UniProt P41595). Kind of assay: Competitive radioligand binding, 5HT2B. More on the design: expressed in transfected cells; host or cells: CHO (membrane fraction). The settings on record: CHO membranes, 3H-5-HT 4 nM; read-out: pIC50 5HT2B (converted). The procedure:
(§1) Competitive radioligand binding assays were used to determine the affinity of the test compounds for a particular receptor. Various concentrations of the non-labelled test compound were added to the incubation mixture with the membrane fraction, containing the receptor of interest, and a fixed low concentration (nM) of the radioligand. During the incubation the radioligand bound to the receptor, but this was inhibited by the non-labelled test compound in proportion to its binding affinity and concentration.
(§2) Cell lines were established that stably express the human variant of the receptor under investigation after transfection with the appropriate cDNA (Table 1). Transfected cells were grown under standard culture conditions, and membrane fractions were obtained upon centrifugation and homogenisation of the cells. Optimal membrane dilutions for binding studies were determined and aliquots were stored at −70° C. until use. In a 96-well plate format, the appropriate radioligand was added to the membrane preparation containing the receptor under investigation. Compound solutions were prepared in DMSO, and diluted 100-fold into the multiwell plate to a final test concentration of 10^−9 to 10^−5 M. After incubation with the test compound, the unbound radioligand was removed by filtration on G/F filters with a Filtermate 96. Microscint™ was added to the washed filter plates and the radioactivity bound to the receptor was measured by liquid scintillation counting in a TopCount (Packard). To measure the Non-Specific Binding (NSB), a high concentration of the non-radiolabeled ligand was added to wells containing the membrane fraction and the radioligand.
(§3) From this, the pIC50 value (inhibitory concentration causing 50% displacement of specific binding) was determined, as well as an estimate of the slope of the plot (Hill coefficient).

Assay [2] deals with T1, Alpha2C (Homo sapiens, UniProt P18825).
T1 construct: expressed in transfected cells; host or cells: CHO (membrane fraction)
T1 sequence (P18825 1-462): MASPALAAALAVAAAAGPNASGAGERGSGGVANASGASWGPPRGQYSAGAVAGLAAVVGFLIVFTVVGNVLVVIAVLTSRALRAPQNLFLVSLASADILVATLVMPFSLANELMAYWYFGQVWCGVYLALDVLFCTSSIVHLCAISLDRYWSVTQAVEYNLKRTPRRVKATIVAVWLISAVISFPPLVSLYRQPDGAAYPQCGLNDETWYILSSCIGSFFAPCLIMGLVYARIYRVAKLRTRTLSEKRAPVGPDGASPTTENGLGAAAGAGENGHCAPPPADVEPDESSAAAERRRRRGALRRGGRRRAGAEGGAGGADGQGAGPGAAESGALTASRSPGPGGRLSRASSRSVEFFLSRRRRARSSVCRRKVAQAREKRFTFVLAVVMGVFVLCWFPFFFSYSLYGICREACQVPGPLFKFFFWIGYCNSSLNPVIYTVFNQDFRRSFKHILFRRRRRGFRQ
Nature of the assay: Competitive radioligand binding, Alpha2C. The settings on record: CHO membranes, 3H-rauwolscine 1 nM; for IC50: read-out: pIC50 Alpha2C (converted). As for the experimental part:
as §1, §2, §3

For assay [3], the target named is T2, 5HT1A (Homo sapiens, UniProt P08908).
T2 construct: expressed in transfected cells; host or cells: HEK293 (membrane fraction)
T2 sequence (P08908 1-422): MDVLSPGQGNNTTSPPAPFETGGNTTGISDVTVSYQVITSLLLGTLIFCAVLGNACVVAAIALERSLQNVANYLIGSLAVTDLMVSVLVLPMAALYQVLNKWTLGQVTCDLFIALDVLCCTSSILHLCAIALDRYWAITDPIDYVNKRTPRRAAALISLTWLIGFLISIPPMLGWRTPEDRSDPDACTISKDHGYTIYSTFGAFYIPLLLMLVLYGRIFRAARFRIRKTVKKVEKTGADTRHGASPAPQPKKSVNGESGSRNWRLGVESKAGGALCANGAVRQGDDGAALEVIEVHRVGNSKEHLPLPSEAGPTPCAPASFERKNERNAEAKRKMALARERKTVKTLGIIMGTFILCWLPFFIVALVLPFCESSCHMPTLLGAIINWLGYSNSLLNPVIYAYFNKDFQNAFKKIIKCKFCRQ
Kind of assay: Competitive radioligand binding, 5HT1A. As to conditions: HEK293 membranes, 3H-8-OH-DPAT 0.5 nM; read-out: pIC50 5HT1A (converted). The procedure: as §1, §2
Using in house developed software, a best-fit curve was fitted by a minimum sum of squares method to the plot of % inhibition vs. concentration of the test compound. From this, the pIC50 value (inhibitory concentration causing 50% displacement of specific binding) was determined, as well as an estimate of the slope of the plot (Hill coefficient).

For assay [4], the target named is T3, 5HT2C (Homo sapiens, UniProt P28335).
T3 construct: expressed in transfected cells; host or cells: CHO (membrane fraction)
T3 sequence (P28335 33-458): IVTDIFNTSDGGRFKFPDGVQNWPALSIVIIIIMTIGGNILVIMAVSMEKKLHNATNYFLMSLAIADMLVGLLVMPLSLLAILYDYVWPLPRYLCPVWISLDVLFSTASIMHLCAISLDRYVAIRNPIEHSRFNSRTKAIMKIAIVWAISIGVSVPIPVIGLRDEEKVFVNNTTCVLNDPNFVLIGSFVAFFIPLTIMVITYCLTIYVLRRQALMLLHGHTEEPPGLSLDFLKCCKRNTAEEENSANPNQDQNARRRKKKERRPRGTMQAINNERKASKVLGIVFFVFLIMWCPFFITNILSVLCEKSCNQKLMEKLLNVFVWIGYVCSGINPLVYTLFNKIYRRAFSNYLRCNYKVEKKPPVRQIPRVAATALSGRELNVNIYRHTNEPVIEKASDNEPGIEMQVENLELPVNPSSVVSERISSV
Nature of the assay: Competitive radioligand binding, 5HT2C. As to conditions: CHO membranes, 3H-mesulergin 1 nM; read-out: pIC50 5HT2C (converted). The procedure: as §1, §2, §3

Assay [5] addresses T4, Alpha2B (Homo sapiens, UniProt P18089).
T4 construct: expressed in transfected cells; host or cells: CHO (membrane fraction)
T4 sequence (P18089 1-450): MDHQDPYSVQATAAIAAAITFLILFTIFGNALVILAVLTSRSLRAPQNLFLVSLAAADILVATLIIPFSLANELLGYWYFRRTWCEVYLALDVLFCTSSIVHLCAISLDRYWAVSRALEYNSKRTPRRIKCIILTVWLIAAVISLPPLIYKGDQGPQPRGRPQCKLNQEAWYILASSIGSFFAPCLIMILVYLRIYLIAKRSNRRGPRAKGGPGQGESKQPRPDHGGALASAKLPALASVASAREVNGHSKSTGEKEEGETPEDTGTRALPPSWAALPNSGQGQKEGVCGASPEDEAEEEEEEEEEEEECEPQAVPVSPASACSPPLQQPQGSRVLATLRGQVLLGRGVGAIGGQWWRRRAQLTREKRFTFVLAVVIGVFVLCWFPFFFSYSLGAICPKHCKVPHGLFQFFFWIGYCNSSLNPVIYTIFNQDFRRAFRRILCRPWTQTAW
Nature of the assay: Competitive radioligand binding, Alpha2B. The settings on record: CHO membranes, 3H-rauwolscine 1 nM; for IC50: read-out: pIC50 Alpha2B (converted). As for the experimental part:
as §1, §2

Assay [6] has as its target T5, 5HT4B (Homo sapiens, UniProt Q13639).
T5 construct: expressed in transfected cells; host or cells: HEK293 (membrane fraction)
Kind of assay: Competitive radioligand binding, 5HT4B. As to conditions: HEK293 membranes, 3H-GR113808 0.1 nM; for IC50: read-out: pIC50 5HT4B (converted). The procedure: as §1, §2, §3

Sequence of 5HT2B (P41595 whole entry): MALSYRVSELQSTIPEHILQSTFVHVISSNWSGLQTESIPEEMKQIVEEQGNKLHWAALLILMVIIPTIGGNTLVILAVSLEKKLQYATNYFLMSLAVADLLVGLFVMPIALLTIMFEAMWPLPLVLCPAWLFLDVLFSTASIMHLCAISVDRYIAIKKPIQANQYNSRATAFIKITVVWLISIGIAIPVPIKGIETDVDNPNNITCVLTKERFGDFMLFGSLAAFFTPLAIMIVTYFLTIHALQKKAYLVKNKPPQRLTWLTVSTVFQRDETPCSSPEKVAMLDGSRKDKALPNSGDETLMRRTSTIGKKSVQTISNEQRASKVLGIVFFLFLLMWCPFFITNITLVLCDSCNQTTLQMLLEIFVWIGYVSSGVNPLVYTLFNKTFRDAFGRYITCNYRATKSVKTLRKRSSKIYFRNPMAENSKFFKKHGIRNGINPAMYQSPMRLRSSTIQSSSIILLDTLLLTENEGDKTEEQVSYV
T5 sequence (Q13639 whole entry): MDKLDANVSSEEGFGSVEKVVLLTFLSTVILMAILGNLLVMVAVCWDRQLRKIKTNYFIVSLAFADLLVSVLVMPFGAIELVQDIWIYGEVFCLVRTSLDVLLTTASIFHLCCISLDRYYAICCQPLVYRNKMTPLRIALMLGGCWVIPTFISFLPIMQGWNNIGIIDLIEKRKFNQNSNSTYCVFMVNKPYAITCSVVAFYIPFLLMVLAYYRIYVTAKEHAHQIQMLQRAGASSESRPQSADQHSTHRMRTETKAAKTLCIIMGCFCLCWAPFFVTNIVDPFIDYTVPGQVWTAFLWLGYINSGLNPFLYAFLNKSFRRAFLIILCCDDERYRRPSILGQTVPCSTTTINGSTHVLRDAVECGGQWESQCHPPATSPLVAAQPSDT

For `COc1cc(N)c(Cl)cc1C(=O)N[C@@H]1CCN(CCCOc2ccc(F)cc2)C[C@H]1F` (single isomer, unassigned) [(+)-7, trans-4-amino-5-chloro-N-{3-fluoro-1-[3-(4-fluorophenoxy)-propyl]-piperidin-4-yl}-2-methoxybenzamide], the IC50 in assay [1] was 129 nM; in assay [2] it was over 10000 nM; in assay [3], 676 nM; in assay [4] it was 1230 nM; in assay [5], 2630 nM; in assay [6], 871 nM.

In the case of `COc1cc(N)c(Cl)cc1C(=O)NC1CCN(CCCOc2ccc(F)cc2)CC1(F)F` (single isomer, unassigned; (+)) [(+)-17, 4-amino-5-chloro-N-{3,3-difluoro-1-[3-(4-fluorophenoxy)-propyl]-piperidin-4-yl}-2-methoxybenzamide], the IC50 in assay [1] was 51.3 nM; in assay [2], over 10000 nM; in assay [3], 5620 nM; in assay [4], over 10000 nM; in assay [5], over 10000 nM; in assay [6], over 10000 nM.

Turning to `COc1cc(N)c(Cl)cc1C(=O)N[C@H]1CCN(CCCOc2ccc(F)cc2)C[C@H]1F` (single isomer, unassigned) [(+)-12, cis-4-amino-5-chloro-N-{3-fluoro-1-[3-(4-fluorophenoxy)-propyl]-piperidin-4-yl}-2-methoxybenzamide], the IC50 was 148 nM in assay [1]; 1950 nM in assay [2]; 741 nM in assay [3]; 5010 nM in assay [4]; 3390 nM in assay [5]; 126 nM in assay [6].

Consider `COc1cc(N)c(Cl)cc1C(=O)NC1CCN(CCCOc2ccc(F)cc2)CC1(F)F` (racemic) [(±)-17, 4-amino-5-chloro-N-{3,3-difluoro-1-[3-(4-fluorophenoxy)-propyl]-piperidin-4-yl}-2-methoxybenzamide], for which the IC50 is 13.8 nM in assay [1]; over 10000 nM in assay [2]; 7940 nM in assay [3]; 4680 nM in assay [4]; over 10000 nM in assay [5]; over 10000 nM in assay [6].

`COc1cc(N)c(Cl)cc1C(=O)N[C@H]1CCN(CCCOc2ccc(F)cc2)C[C@H]1F` (racemic) [(±)-12, cis-4-amino-5-chloro-N-{3-fluoro-1-[3-(4-fluorophenoxy)-propyl]-piperidin-4-yl}-2-methoxybenzamide]: the IC50 is 66.1 nM in assay [1]; 2090 nM in assay [2]; 4170 nM in assay [3]; 4370 nM in assay [4]; 2510 nM in assay [5]; 115 nM in assay [6].

Turning to `COc1cc(N)c(Cl)cc1C(=O)N[C@@H]1CCN(CCCOc2ccc(F)cc2)C[C@H]1F` (single isomer, unassigned) [(−)-7, trans-4-amino-5-chloro-N-{3-fluoro-1-[3-(4-fluorophenoxy)-propyl]-piperidin-4-yl}-2-methoxybenzamide], the IC50 in assay [1] is 251 nM; in assay [2], 1170 nM; in assay [3], 1100 nM; in assay [4], 3720 nM; in assay [5], 6030 nM; in assay [6] it was 437 nM.

In the case of `COc1cc(N)c(Cl)cc1C(=O)N[C@H]1CCN(CCCOc2ccc(F)cc2)C[C@H]1F` (single isomer, unassigned) [(−)-12, cis-4-amino-5-chloro-N-{3-fluoro-1-[3-(4-fluorophenoxy)-propyl]-piperidin-4-yl}-2-methoxybenzamide], the IC50 in assay [1] was 72.4 nM; in assay [2], 5890 nM; in assay [3], 1860 nM; in assay [4], 6610 nM; in assay [5] it was 5250 nM; in assay [6] it was 537 nM.

`COc1cc(N)c(Cl)cc1C(=O)NC1CCN(CCCOc2ccc(F)cc2)CC1(F)F` (single isomer, unassigned) [Compound (−)-17, 4-amino-5-chloro-N-{3,3-difluoro-1-[3-(4-fluorophenoxy)-propyl]-piperidin-4-yl}-2-methoxybenzamide]: the IC50 in assay [1] is 7.24 nM; in assay [3], over 10000 nM; in assay [4], 6610 nM. For the same compound, the “pIC50 Alpha2C” value in assay [2] is listed as under 5. In assay [5], the “pIC50 Alpha2B” value is under 5. Moreover, the “pIC50 5HT4B” value in assay [6] is listed as under 5.

As to `COc1cc(N)c(Cl)cc1C(=O)N[C@@H]1CCN(CCCOc2ccc(F)cc2)C[C@H]1F` (racemic) [(±)-7, trans-4-amino-5-chloro-N-{3-fluoro-1-[3-(4-fluorophenoxy)-propyl]-piperidin-4-yl}-2-methoxybenzamide], the IC50 is 107 nM in assay [1]; 955 nM in assay [2]; 1820 nM in assay [3]; 1820 nM in assay [4]; 2510 nM in assay [5]; 617 nM in assay [6].
